The subject of data set [1] is Hepatitis C virus. The data set is described as follows: Antiviral activity against Hepatitis C virus (isolate Con1) genotype 1b in human Huh-7/3-1 cells assessed as reduction in NS5B protein level in golgi-derived detergent-resistant membrane at 1 uM after 72 hrs by immunoblotting analysis. Format: functional, organism-based. Particulars: Hepacivirus hominis.
Data set [2] in a line: Cytotoxicity against human Huh-7/3-1 cells assessed as cell viability at 0.1 to 11 uM after 72 hrs by WST-8 assay. Format: cell-based. For orientation: Tetrazolium dyes change colour on reduction, which living cells bring about.
Data set [3] relates to Hepatitis C virus. The data set is described as follows: Antiviral activity against Hepatitis C virus (isolate Con1) genotype 1b in human Huh-7/3-1 cells assessed as inhibition of HCV replication. Format: functional, organism-based, Hepacivirus hominis. The conditions noted are these: isolate Con1, Huh-7.
The nature of data set [4]: Cytotoxicity against human Huh-7/3-1 cells assessed as reduction in cell viability. Format: cell-based.
Data set [5] deals with Hepatitis C virus. Kind of data set: Binding affinity at HCV NS5B at 1 nmol by ELISA. The conditions noted are these: Hepacivirus hominis; Con1. On the technique in general: In an ELISA, binding on a coated surface is turned into a signal by an enzyme label.
The subject of data set [6] is Hepatitis C virus. Kind of data set: Antiviral activity against Hepatitis C virus (isolate Con1) genotype 1b in human Huh-7/3-1 cells assessed as reduction in NS3 protein level at 100 nM by Western blot analysis. The conditions noted are these: Hepacivirus hominis, TDE = time-dependent effect. Format: functional, organism-based. In general terms: A western blot detects proteins with antibodies after separation by electrophoresis.

In data set [7] the test system is Hepatitis C virus. Kind of data set: Antiviral activity against Hepatitis C virus (isolate Con1) genotype 1b in human Huh-7/3-1 cells assessed as reduction in NS5A protein level in golgi-derived detergent-resistant membrane at 1 uM after 72 hrs by immunoblotting analysis. Format: functional, organism-based. Particulars: Hepacivirus hominis.
Data set [8] relates to Hepatitis C virus. The data set is described as follows: Antiviral activity against Hepatitis C virus (isolate Con1) genotype 1b in human Huh-7/3-1 cells assessed as reduction in NS5B protein level at 100 nM by Western blot analysis. Format: functional, organism-based. The conditions noted are these: Hepacivirus hominis, TDE = time-dependent effect.
The test system of data set [9] is Hepatitis C virus. Kind of data set: Antiviral activity against Hepatitis C virus (isolate Con1) genotype 1b in human Huh-7/3-1 cells assessed as reduction in NS5A protein level at 100 nM by Western blot analysis. Format: functional, organism-based. The conditions noted are these: Hepacivirus hominis, TDE = time-dependent effect.
The test system of data set [10] is Hepatitis C virus. The data set is described as follows: microbe, parasite or virus in culture. Particulars: isolate Con1, Huh-7, 72 h.
Description: Antiviral activity against Hepatitis C virus (isolate Con1) genotype 1b in human Huh-7/3-1 cells assessed as inhibition of HCV replication after 72 hrs by luciferase assay
Data set [11] is described as follows: Cytotoxicity against human Huh-7/3-1 cells assessed as cell viability at 0.1 to 100 uM after 72 hrs by Trypan Blue exclusion test. Format: cell-based.
The subject of data set [12] is Hepatitis C virus. The data set is described as follows: Relocation of NS5B in human Huh-7/3-1 Hepatitis C virus (isolate Con1) genotype 1b replicon cells using golgi-derived detergent-resistant membrane at 10 nM after 72 hrs by immunoblotting analysis. Format: functional, organism-based. Particulars: Hepacivirus hominis.
Data set [13] is described as follows: Cytotoxicity against human Huh-7/3-1 cells assessed as cell viability at 0.1 to 100 uM after 72 hrs by WST-8 assay. Format: cell-based.
For data set [14], the system named is Hepatitis C virus. Kind of data set: Antiviral activity against Hepatitis C virus (isolate Con1) genotype 1b in human Huh-7/3-1 cells assessed as decrease in replicon RNA at 0.01 to 1 uM after 72 hrs by Northern blot analysis. Format: functional, organism-based. Particulars: Hepacivirus hominis.
The species named for a further data set is Homo sapiens. The data set is described as follows: Effect on Caveolin-2 localization in human Huh-7/3-1 replicon golgi-derived detergent-resistant membrane at 1 uM after 72 hrs by immunoblotting analysis. Format: functional.
Data set [15] relates to Hepatitis C virus. The data set is described as follows: microbe, parasite or virus in culture. Particulars: isolate Con1, Huh-7.
Description: Antiviral activity against Hepatitis C virus (isolate Con1) genotype 1b in human Huh-7/3-1 cells assessed as inhibition of SPT activity in presence of 3 uM sphinganine
The test system of data set [16] is Hepatitis C virus. The data set is described as follows: Antiviral activity against Hepatitis C virus (isolate Con1) genotype 1b in human Huh-7/3-1 cells assessed as reduction in NS3 protein level at 1 uM by Western blot analysis in presence of 1 uM C2-ceramide. The conditions noted are these: Hepacivirus hominis. Format: functional, organism-based.
In data set [17] the test system is Hepatitis C virus. The data set is described as follows: Antiviral activity against Hepatitis C virus (isolate Con1) genotype 1b in human Huh-7/3-1 cells assessed as inhibition of HCV replication at 0.1 to 100 nM after 72 hrs by luciferase assay. Format: functional, organism-based. The conditions noted are these: Hepacivirus hominis.
The test system of data set [18] is Hepatitis C virus. The data set is described as follows: Antiviral activity against Hepatitis C virus (isolate Con1) genotype 1b in human Huh-7/3-1 cells assessed as reduction in NS3 protein level at 1 uM by Western blot analysis in presence of 5 uM C2-ceramide. Format: functional, organism-based. The conditions noted are these: Hepacivirus hominis.
Data set [19] relates to Hepatitis C virus. Kind of data set: Antiviral activity against Hepatitis C virus (isolate Con1) genotype 1b in human Huh-7/3-1 cells assessed as disappearance of NS3 protein from perinuclear region at 100 nM after 96 hrs by immunostaining. Format: functional, organism-based. The conditions noted are these: Hepacivirus hominis.
Data set [20] has as its system Hepatitis C virus. Kind of data set: Antiviral activity against Hepatitis C virus (isolate Con1) genotype 1b in human Huh-7/3-1 cells assessed as reduction in NS3 protein level in golgi-derived detergent-resistant membrane at 1 uM after 72 hrs by immunoblotting analysis. Format: functional, organism-based. Particulars: Hepacivirus hominis.
The target in data set [21] is T1, Serine palmitoyltransferase 1 (Homo sapiens, UniProt O15269).
T1 sequence (O15269 whole entry): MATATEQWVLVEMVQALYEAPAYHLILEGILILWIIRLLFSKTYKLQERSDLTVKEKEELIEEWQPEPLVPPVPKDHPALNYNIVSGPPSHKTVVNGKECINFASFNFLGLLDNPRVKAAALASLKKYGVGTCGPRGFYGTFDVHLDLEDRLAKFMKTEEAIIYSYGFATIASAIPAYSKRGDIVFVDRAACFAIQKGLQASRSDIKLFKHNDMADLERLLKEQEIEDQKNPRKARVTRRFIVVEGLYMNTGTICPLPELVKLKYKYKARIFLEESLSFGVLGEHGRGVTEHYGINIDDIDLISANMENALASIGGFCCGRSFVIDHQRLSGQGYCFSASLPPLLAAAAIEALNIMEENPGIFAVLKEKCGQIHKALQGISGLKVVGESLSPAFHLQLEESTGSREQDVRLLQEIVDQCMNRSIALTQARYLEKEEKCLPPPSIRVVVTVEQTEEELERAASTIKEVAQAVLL
The data set is described as follows: Inhibition of human recombinant SPT1 activity in LCB1 transfected human HEK293 cells. Format: cell-based.

Data set [22] has as its system Hepatitis C virus. Kind of data set: microbe, parasite or virus in culture. The conditions noted are these: isolate Con1, Huh-7. The source holds these as a separate data set.
Description: Antiviral activity against Hepatitis C virus (isolate Con1) genotype 1b in human Huh-7/3-1 cells assessed as inhibition of SPT activity in presence of 1 uM sphinganine
Data set [23] in a line: Cytotoxicity against human Huh-7/3-1 cells assessed as cell cycle progression at 0.02 to 50 uM after 72 hrs by flow-cytometry. Format: cell-based.

The source made the active and inactive calls. The calls are words filed in the database; no cut-off is given here.

With `CCCCCCC(=O)CCCCCC/C=C/C[C@@H](O)[C@H](O)[C@@](N)(CO)C(=O)O`, the result in the data set with Hepatitis C virus [1] was Active.
Turning to `CCCCCCCCCCCC(=O)N[C@@H](CO)C[C@@H](O)c1ccccc1`, in data set [2], the Activity entry is recorded as “Non-toxic”.
One may read the IC50 as the midpoint of a concentration-inhibition curve. `CCCCCCCCCCCCCCCC(=O)NC(CN1CCOCC1)C(O)c1ccccc1` (stereo not given): the IC50 with Hepatitis C virus [3] was 1200 nM. In data set [4], the Activity was 5.3 µM.
`CCCCCCCCCCCCCC/C=C/[C@@H](O)[C@H](CO[C@@H]1O[C@H](CO)[C@H](O)[C@H](O)[C@H]1O)NC(=O)CCCCCCCCCCCCCCCCC`: the outcome with Hepatitis C virus [5] was Active.
As to `CCCCCCCC(=O)CCCCCC/C=C/[C@H](C(=O)N[C@@H](Cc1ccc(OCC=C(C)C)cc1)C(=O)O)[C@@](O)(CC(=O)O)C(=O)O`, the Activity entry in the data set with Hepatitis C virus [6] is “tde”; with Hepatitis C virus [8] it was “tde”; with Hepatitis C virus [9] it was “tde”; in [11], “Non-toxic”; in [13], over 50 µM; with Hepatitis C virus [17], “Dose-dependent effect”. Moreover, the Activity result in data set [23] is given as “Non-toxic”. The outcome in the data set on Hepatitis C virus [7], with Hepatitis C virus [12], in the data set listed under Homo sapiens, in the data set with Hepatitis C virus [16], in the data set with Hepatitis C virus [18] and with Hepatitis C virus [20] was inactive. In addition, the half-maximal inhibitory concentration (IC50) with Hepatitis C virus [10] was 2 nM; in the data set with Hepatitis C virus [15], over 1000 nM; in [21], 10 nM; in the data set with Hepatitis C virus [22] it was 33 nM. For the same compound, the result in the data set with Hepatitis C virus [14], in the data set on Hepatitis C virus [1] and in the data set on Hepatitis C virus [19] was Active.
